Here are results for one molecule from US11572590B2, “Methods for evaluating tumor cell spheroids using 3D microfluidic cell culture device” (Dana-Farber Cancer Institute, Inc., priority 2017, dated 2023).

Read-outs that look alike come from different tables or passages of the source.

Assay [1] concerns the target T1, off-target kinases (Homo sapiens, UniProt Q12851).
T1 sequence (Q12851 1-820): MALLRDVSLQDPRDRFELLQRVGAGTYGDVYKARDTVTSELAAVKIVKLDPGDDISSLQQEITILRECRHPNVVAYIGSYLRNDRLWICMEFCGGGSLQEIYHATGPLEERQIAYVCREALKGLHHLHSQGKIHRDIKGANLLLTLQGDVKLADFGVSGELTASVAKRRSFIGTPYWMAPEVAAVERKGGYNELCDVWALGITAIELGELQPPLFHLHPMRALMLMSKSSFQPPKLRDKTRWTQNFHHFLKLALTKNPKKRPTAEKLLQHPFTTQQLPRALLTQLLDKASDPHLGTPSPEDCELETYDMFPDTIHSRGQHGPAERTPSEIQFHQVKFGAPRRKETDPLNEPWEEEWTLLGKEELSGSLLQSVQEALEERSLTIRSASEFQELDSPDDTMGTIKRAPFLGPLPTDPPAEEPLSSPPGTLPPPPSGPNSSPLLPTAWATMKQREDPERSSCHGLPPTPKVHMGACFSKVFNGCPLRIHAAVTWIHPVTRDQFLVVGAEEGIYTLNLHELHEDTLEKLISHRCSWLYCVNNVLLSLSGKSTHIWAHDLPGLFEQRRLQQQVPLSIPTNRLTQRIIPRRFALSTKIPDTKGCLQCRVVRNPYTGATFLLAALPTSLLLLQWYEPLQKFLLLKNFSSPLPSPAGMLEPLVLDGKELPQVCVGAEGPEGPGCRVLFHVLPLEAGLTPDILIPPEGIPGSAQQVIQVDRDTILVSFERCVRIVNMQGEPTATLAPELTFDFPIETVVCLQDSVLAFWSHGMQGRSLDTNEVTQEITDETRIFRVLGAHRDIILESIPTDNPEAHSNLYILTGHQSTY
The assay is described as follows: SelectScreen Kinase Profiling, single point inhibition and IC50 for off-target kinases. The format is biochemical. As to conditions: MAP4K2 (GCK), ZLYTE, ATP Km app.

The target in assay [2] is off-target kinases (Homo sapiens, UniProt P10721, V654A). Described as above. As to conditions: KIT V654A (mutant), LanthaScreen Binding. It is filed as biochemical. Background: TR-FRET usually uses a lanthanide donor and a delayed reading to cut background.
Chain of off-target kinases (Homo sapiens, UniProt P10721, V654A) (P10721 26-976 V654A): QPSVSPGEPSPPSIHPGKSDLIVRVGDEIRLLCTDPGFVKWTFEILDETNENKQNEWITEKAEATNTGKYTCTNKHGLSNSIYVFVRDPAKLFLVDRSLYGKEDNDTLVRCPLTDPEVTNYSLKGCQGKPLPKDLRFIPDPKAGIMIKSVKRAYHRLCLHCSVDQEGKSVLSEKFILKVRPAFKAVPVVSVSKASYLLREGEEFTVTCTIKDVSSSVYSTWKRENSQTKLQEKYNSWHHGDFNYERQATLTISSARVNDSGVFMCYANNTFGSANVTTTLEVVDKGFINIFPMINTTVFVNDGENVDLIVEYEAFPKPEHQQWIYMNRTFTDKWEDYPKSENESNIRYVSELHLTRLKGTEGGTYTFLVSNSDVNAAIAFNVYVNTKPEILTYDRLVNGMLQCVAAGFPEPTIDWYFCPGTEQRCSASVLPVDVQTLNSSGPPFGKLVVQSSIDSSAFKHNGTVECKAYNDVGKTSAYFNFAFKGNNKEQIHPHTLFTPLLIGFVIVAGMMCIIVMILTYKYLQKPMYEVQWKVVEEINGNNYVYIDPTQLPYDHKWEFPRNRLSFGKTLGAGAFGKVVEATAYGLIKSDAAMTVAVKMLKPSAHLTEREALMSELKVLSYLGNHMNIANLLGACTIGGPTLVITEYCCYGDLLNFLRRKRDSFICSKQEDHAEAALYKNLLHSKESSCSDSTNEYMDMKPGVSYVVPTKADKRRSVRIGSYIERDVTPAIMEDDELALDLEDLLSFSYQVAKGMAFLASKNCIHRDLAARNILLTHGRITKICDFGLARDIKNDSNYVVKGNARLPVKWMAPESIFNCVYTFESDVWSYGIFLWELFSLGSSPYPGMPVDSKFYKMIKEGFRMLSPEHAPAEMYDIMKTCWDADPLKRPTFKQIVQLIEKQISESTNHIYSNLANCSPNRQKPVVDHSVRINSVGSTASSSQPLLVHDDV

Broadly, the inhibition is the drop in the measured response relative to a control, in per cent. Regarding `N#Cc1cc(-c2ncnc(Nc3ccc(N4CCN(C5COC5)CC4)cc3)n2)ccc1OC1CCOCC1` [Compound 1, 5-(4-((4-(4-(oxetan-3-yl)piperazin-1-yl)phenyl)amino)-1,3,5-triazin-2-yl)-2-((tetrahydro-2H-pyran-4-yl)oxy)benzonitrile], the inhibition at off-target kinases [1] (read-out: % Inhibition 1) was 6%; at off-target kinases [1] (read-out: % Inhibition 2), -2%; on off-target kinases [1] (read-out: % Inhibition Avg), 2%; on off-target kinases [2] (read-out: % Inhibition 1) it was 7%; at off-target kinases [2] (read-out: % Inhibition 2), 10%; on off-target kinases [2] (read-out: % Inhibition Avg), 9%.
